Where “and” joins values, the source holds several entries; their conditions need not be identical. Equal values may be shown once.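 How tested: cells in 96-well plates exposed to compound for 48 hours at five concentrations. GI50 = concentration required for 50% inhibition of growth. TGI denotes the concentration required for complete inhibition of growth.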
Legend:
Assay in all cases: DTP human tumour cell line panel, 48 h
OVCAR-5 ovarian = test system: OVCAR-5 ovarian
HCT-116 colon = test system: HCT-116 colon
HOP-92 NSCLC = test system: HOP-92 NSCLC
MALME-3M melanoma = test system: MALME-3M melanoma
BT-549 breast = test system: BT-549 breast
NCI-H226 lung = test system: NCI-H226 lung
DU-145 prostate = test system: DU-145 prostate
SNB-19 CNS = test system: SNB-19 CNS
HOP-62 NSCLC = test system: HOP-62 NSCLC
RPMI-8226 leukemia = test system: RPMI-8226 leukemia

| SMILES | GI50 (OVCAR-5 ovarian) [µM] | TGI (OVCAR-5 ovarian) [µM] | GI50 (HCT-116 colon) [µM] | TGI (HCT-116 colon) | GI50 (HOP-92 NSCLC) [µM] | TGI (HOP-92 NSCLC) [µM] | GI50 (MALME-3M melanoma) [µM] | TGI (MALME-3M melanoma) | GI50 (BT-549 breast) [µM] | TGI (BT-549 breast) [µM] | GI50 (NCI-H226 lung) [µM] | TGI (NCI-H226 lung) | GI50 (DU-145 prostate) [µM] | TGI (DU-145 prostate) [µM] | GI50 (SNB-19 CNS) [µM] | TGI (SNB-19 CNS) [µM] | TGI (HOP-62 NSCLC) | TGI (RPMI-8226 leukemia) | GI50 (HOP-62 NSCLC) [µM] | GI50 (RPMI-8226 leukemia) [µM] |
| --- | --- | --- | --- | --- | --- | --- | --- | --- | --- | --- | --- | --- | --- | --- | --- | --- | --- | --- | --- | --- |
| C[C@H]1[C@H](C)CC[C@]2(C(=O)NCCNCCN)CC[C@]3(C)C(=CC[C@@H]4[C@@]5(C)CCC(=O)C(C)(C)[C@@H]5CC[C@]43C)[C@H]12 | 2.9 | 11.3 | 1.71 | 3.18 µM | 1.73 | 4.82 | 1.64 | 3.06 µM | 6.45 | 24.1 | 14.8 | 45.5 µM | 1.8 | 3.35 | 1.67 | 3.11 |  |  |  |  |
| CC(CC(=O)Nc1ccc(NC(=O)CC(C)N=NC(N)=S)cc1)N=NC(N)=S (stereo not given) |  | > 100 |  | > 100 µM |  | > 100 |  | > 100 µM |  |  |  | > 100 µM |  |  |  | > 100 | > 100 µM | > 100 µM |  |  |
| COc1c(Br)cc(Br)c(OC)c1-c1[nH]c(Br)c(Br)c1Br |  | 29 |  | 12.3 µM |  | 7.79 |  | 16.6 µM |  |  |  | 25.8 µM |  |  |  | > 100 | 21.3 µM | 13.2 µM |  |  |
| CCN(CC)CC(=O)N1CCc2c([nH]c3ccccc23)C1c1cccnc1 (stereo not given) |  | > 100 |  | > 100 µM |  | > 100 |  |  |  |  |  |  |  |  |  | > 100 | > 100 µM | > 100 µM |  |  |
| CC1(c2ccccc2)CC(c2ccccc2)=NO1 (stereo not given) |  | > 100 |  | > 100 µM |  | > 100 |  | > 100 µM |  |  |  | > 100 µM |  |  |  | > 100 | > 100 µM | > 100 µM |  |  |
| CC1=C(C(=O)Nc2ccccc2C)C(/C=C/c2ccccc2)C(C(=O)Nc2ccccc2C)=C(C)N1 |  | > 100 |  | > 100 µM |  | > 100 |  | > 100 µM |  |  |  | > 100 µM |  |  |  | > 100 | > 100 µM |  |  |  |
| Cc1ccc(S(=O)(=O)N/N=C(\c2nc3ccc([N+](=O)[O-])cc3[nH]c2=O)C(O)c2ccccc2Cl)cc1 (stereo not given) |  | > 100 |  | > 100 µM |  | > 100 |  | > 100 µM |  |  |  | > 100 µM |  |  |  | > 100 | > 100 µM | > 100 µM |  |  |
| C[n+]1c2ccccc2cc2c(CNC(CCCN=C(N)N)C(=O)O)cccc21 (stereo not given) | 14.4 | 27.4 | 0.343 | 1.26 µM and 1.07 µM | 0.327 | 0.991 | 3.48 | 4.54 µM and 10.7 µM |  |  | 7.76 | 7.63 µM and 35.8 µM |  |  |  |  | 6.88 µM and 22 µM | 0.679 µM and 1.56 µM | 9.22 | 0.327 |
| COc1ccc(Nc2nc3ccccc3nc2-c2cccs2)cc1 |  | > 100 |  | > 100 µM |  | > 100 |  | > 100 µM |  |  |  | > 100 µM |  |  |  | > 100 | > 100 µM |  |  |  |
| C#CCC(N)(CO)C(=O)O (stereo not given) |  | > 100 |  | > 100 µM |  | > 100 |  | > 100 µM |  |  |  | > 100 µM |  |  |  | > 100 | > 100 µM | > 100 µM |  |  |
| CC/C(=N\NS(=O)(=O)c1ccccc1)c1ccccc1 |  | > 100 |  | > 100 µM |  | > 100 |  | > 100 µM |  |  |  | > 100 µM |  |  |  |  | > 100 µM | > 100 µM |  |  |
| NC(=O)/C=C/C(=O)O |  | > 5000 |  | > 5000 µM |  | > 5000 |  | > 5000 µM |  |  |  | > 5000 µM |  |  |  |  | > 5000 µM | > 5000 µM |  |  |
| CC1(Cc2ccccc2)NC(=S)NC1=O (stereo not given) |  | > 100 |  |  |  | > 100 |  | > 100 µM |  |  |  | > 100 µM |  |  |  | > 100 | > 100 µM |  |  |  |
| O=c1c(Cl)c(Cl)cnn1CCc1ccncc1 |  | 33.6 |  | 30.7 µM |  | 38.5 |  | 39.6 µM |  |  |  | 84.1 µM |  |  |  | 30.7 | 33.9 µM | > 100 µM |  |  |
| CSc1c(C)c(C)nn1-c1ccccc1 |  | > 100 |  |  |  |  |  | > 100 µM |  |  |  |  |  |  |  | > 100 |  | > 100 µM |  |  |
| Cn1cc(-c2csc(-c3cn(C)c4ccccc34)n2)c2cnccc21 | 1.77 | 3.25 | 0.925 | 2.19 µM |  |  | 2.01 | 3.61 µM | 1.68 | 3.09 |  |  | 2.13 | 4.41 | 1.76 | 3.28 | 3.85 µM | 4.06 µM | 1.67 | 1.76 |
| Cc1ccc2nc3c(Cl)c(C)c(=O)cc-3sc2c1 | 73.7 | > 100 | 39.6 | > 100 µM |  | > 100 | 73.8 | > 100 µM |  |  | 60 | > 100 µM |  |  | > 100 | > 100 | > 100 µM | > 100 µM | 47.8 |  |
| Cn1c2ccccc2c2c(=O)c3ccccc3[nH]c21 | 30.8 | > 100 | 17.6 | 52.9 µM |  |  |  |  | 73.3 | > 100 | 38.8 | > 100 µM | 33.2 | > 100 | 43.9 | > 100 | > 100 µM | 91.7 µM | 38.9 | 29.6 |
| O=C1C(SCCO)=C(SCCO)C(=O)c2ccccc21 |  | 2.81 |  | 9.54 µM |  | 2.42 |  | 2.85 µM |  | 2.89 |  | 3.38 µM |  |  |  | 3.23 | 3.77 µM | 3.09 µM |  |  |
| O=c1c2c3c(sc2n2c(-c4cc(-c5ccccc5)nn4-c4ccccc4)nnc2n1Cc1ccccc1)CCCC3 | > 100 | > 100 |  |  |  |  | > 100 | > 100 µM | > 100 | > 100 | > 100 | > 100 µM | > 100 | > 100 | > 100 | > 100 | > 100 µM |  | > 100 |  |
| CC(=O)[CH-]C(C)=O.[CH2-]C.[CH2-]C.[Tl+3] | > 100 | > 100 | > 100 | > 100 µM | > 100 | > 100 | > 100 | > 100 µM |  |  | > 100 | > 100 µM |  |  | > 100 | > 100 | > 100 µM | > 100 µM | > 100 | > 100 |
| CNC(SC)=C1C(=O)OC(C)(C)OC1=O |  | > 100 |  | > 100 µM |  | > 100 |  | > 100 µM |  |  |  | > 100 µM |  |  |  | > 100 | > 100 µM | > 100 µM |  |  |

Reference: PubChem BioAssay (NCI)
